From ChEMBL document CHEMBL3525955, “Glucuronidation of the red clover isoflavone irilone by liver microsomes from different species and human UDP-glucuronosyltransferases” (Drug Metab Dispos, 2011)

Columns and labels:
[1] = target: T1, UDP-glucuronosyltransferase 1A10 (Homo sapiens, UniProt Q9HAW8); assay: Drug metabolism assessed as human recombinant UGT1A10-mediated irilone-O-4'-monoglucuronide formation incubated for 5 mins prior to UDPGA addition measured after 90 mins by HPLC-DAD analysis; format: ADME; conditions: recombinant enzyme, 1.5 h
T1 sequence (Q9HAW8 whole entry): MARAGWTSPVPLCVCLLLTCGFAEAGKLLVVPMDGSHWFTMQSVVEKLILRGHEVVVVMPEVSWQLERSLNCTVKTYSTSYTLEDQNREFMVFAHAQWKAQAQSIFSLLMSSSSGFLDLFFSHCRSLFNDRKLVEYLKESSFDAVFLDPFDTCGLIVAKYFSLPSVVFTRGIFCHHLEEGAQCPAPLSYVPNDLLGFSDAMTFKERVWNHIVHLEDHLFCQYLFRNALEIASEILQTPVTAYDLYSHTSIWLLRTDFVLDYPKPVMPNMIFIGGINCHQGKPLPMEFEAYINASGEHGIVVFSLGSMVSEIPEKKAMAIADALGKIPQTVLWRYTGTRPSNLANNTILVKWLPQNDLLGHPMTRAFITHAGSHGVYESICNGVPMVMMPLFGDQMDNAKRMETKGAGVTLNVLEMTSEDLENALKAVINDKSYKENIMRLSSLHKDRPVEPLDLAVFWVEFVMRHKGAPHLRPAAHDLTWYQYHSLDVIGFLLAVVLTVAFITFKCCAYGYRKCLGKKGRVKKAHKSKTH

Liver microsome [2] = assay: Drug metabolism in Sprague-Dawley rat liver microsomes assessed as substrate inhibition of IRI-O-5-monoglucuronide formation incubated for 5 mins prior to UDPGA addition measured after 90 mins by Eadie-Hoftsee plot analysis; format: ADME
[3] = target: T2, UDP-glucuronosyltransferase 1A1 (Homo sapiens, UniProt P22309); assay: Activity of human recombinant UGT1A1 assessed as intrinsic clearance incubated for 5 mins prior to UDPGA addition measured after 90 mins; format: ADME; conditions: recombinant enzyme, 1.5 h
T2 sequence (P22309 whole entry): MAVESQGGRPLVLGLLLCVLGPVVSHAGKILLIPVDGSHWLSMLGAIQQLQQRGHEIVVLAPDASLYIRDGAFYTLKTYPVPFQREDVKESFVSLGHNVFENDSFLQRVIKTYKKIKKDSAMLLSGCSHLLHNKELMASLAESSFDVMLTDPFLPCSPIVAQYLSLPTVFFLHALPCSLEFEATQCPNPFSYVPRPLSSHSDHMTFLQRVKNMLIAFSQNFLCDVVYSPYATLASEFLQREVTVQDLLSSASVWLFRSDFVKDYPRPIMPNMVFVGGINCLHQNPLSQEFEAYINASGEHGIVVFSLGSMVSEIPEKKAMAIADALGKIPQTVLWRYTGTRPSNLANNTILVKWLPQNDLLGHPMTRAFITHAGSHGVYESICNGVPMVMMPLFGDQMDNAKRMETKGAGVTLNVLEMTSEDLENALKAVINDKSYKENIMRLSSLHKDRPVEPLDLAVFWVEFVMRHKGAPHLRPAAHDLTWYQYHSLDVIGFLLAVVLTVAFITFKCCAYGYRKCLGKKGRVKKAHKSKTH

[4] = target: T3, UDP-glucuronosyltransferase 1A8 (Homo sapiens, UniProt Q9HAW9); assay: Substrate inhibition of human recombinant UGT1A8 assessed as IRI-O-5-monoglucuronide formation incubated for 5 mins prior to UDPGA addition measured after 90 mins by Eadie-Hoftsee plot analysis; format: ADME
T3 sequence (Q9HAW9 whole entry): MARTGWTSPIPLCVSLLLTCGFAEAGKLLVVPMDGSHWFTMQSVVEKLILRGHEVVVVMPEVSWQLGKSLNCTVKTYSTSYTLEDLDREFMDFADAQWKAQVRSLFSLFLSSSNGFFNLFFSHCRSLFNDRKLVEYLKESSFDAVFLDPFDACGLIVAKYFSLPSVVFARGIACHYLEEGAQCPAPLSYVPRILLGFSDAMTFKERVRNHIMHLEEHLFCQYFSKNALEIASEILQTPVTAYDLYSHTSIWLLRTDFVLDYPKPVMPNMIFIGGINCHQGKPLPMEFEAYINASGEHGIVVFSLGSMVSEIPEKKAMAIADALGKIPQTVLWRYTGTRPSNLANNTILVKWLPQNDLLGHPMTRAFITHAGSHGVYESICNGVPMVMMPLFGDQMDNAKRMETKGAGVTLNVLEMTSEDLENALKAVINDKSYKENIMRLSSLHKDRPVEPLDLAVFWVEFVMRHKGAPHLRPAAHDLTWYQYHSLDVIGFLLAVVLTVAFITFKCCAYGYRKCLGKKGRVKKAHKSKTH

Liver microsome [5] = assay: Drug metabolism in human liver microsomes assessed as IRI-O-5-monoglucuronide formation incubated for 5 mins prior to UDPGA addition measured after 90 mins by Eadie-Hoftsee plot analysis; format: ADME; conditions: 1.5 h
[6] = Drug metabolism in pig liver microsomes assessed as IRI-O-4'-monoglucuronide formation incubated for 5 mins prior to UDPGA addition measured after 90 mins by Eadie-Hoftsee plot analysis; format: ADME, Sus scrofa; conditions: 1.5 h
[7] = target: T1, UDP-glucuronosyltransferase 1A10; assay: Substrate inhibition of human recombinant UGT1A10 assessed as IRI-O-4'-monoglucuronide formation incubated for 5 mins prior to UDPGA addition measured after 90 mins by Eadie-Hoftsee plot analysis; format: ADME
Liver microsome [8] = assay: Drug metabolism in human liver microsomes assessed as IRI-O-4'-monoglucuronide formation incubated for 5 mins prior to UDPGA addition measured after 90 mins by Eadie-Hoftsee plot analysis; format: ADME; conditions: 1.5 h
[9] = target: T4, UDP-glucuronosyltransferase 1A7 (Homo sapiens, UniProt Q9HAW7); assay: Activity of human recombinant UGT1A7 assessed as intrinsic clearance incubated for 5 mins prior to UDPGA addition measured after 90 mins; format: ADME; conditions: recombinant enzyme, 1.5 h
T4 sequence (Q9HAW7 whole entry): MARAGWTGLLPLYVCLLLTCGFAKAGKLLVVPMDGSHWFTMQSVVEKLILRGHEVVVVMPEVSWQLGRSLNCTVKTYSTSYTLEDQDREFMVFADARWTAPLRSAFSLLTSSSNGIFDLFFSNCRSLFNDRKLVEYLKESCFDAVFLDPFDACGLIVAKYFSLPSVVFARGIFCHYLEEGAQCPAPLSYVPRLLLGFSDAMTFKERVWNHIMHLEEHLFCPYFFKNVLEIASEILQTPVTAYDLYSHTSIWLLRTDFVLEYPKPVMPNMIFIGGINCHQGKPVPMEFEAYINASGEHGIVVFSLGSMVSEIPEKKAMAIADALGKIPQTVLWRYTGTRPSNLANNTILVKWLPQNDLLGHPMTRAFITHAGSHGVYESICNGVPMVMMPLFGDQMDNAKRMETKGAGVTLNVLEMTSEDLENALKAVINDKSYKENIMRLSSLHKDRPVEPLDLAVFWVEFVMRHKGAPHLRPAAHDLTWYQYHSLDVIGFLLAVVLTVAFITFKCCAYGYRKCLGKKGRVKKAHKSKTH

[10] = target: T2, UDP-glucuronosyltransferase 1A1; assay: Drug metabolism assessed as human recombinant UGT1A1-mediated irilone-O-4'-monoglucuronide formation at 25 uM incubated for 5 mins prior to UDPGA addition measured after 90 mins by HPLC-DAD analysis; format: ADME; conditions: recombinant enzyme, 1.5 h

Drug metabolism [1]: metabolite_detected | Ki (Liver microsome [2]): 65.3 µM | CL [3]: 27200 µL/min/mg | Ki [4]: 22.6 µM | Km (Liver microsome [5]): 9.8 µM | Vmax (Liver microsome [5]): 0.43 nmol/mg/min | Km [6]: 88.6 µM | Vmax [6]: 4.87 nmol/mg/min | Ki [7]: 121 µM | Km (Liver microsome [8]): 64.7 µM | Vmax (Liver microsome [8]): 0.34 nmol/mg/min | CL [9]: 3900 µL/min/mg | Drug metabolism [10]: metabolite_detected
Structure (SMILES): O=c1c(-c2ccc(O)cc2)coc2cc3c(c(O)c12)OCO3
